Measured values as given in patent US10166218B2, “3-(1H-indol-2-yl)-1H-pyrazolo[3,4-C]pyridines and therapeutic uses thereof” (Samumed, LLC, priority 2015, dated 2019).

What was measured:
[1] = tested on: primary human mesenchymal stem cells (hMSCs); test: Induction of chondrogenesis in primary human mesenchymal stem cells (chondrogenic nodules); assay type: cell-based; conditions: 144 h, 6 days; for EC50: concentration required to induce 50% levels of chondrogenesis of TGF-β3 positive control, read-out: Conc (nM) of 50% TGF-β3 activity; for Emax: nodules, relative to TGF-β3 (10 ng/mL) positive control, read-out: Max. Activity as % TGF-β3 activity
Procedure: Representative compounds were screened using primary human mesenchymal stem cells (hMSCs) to determine their ability to induce chondrogenesis (process by which cartilage is developed).
Primary human mesenchymal stem cells (hMSCs) were purchased from Lonza (Walkersville, Md.) and expanded in Mesenchymal Stem Cell Growth Media (Lonza). Cells between passage 3 and 6 were used for the experiments.
Each compound was dissolved in DMSO as a 10 mM stock and used to prepare compound source plates. Serial dilution (1:3, 6-point dose-response curves from 2700 nM to 10 nM) and compound transfer was performed using the ECHO 550 (Labcyte, Sunnyvale, Calif.) into 96-well clear bottom assay plates (Greiner Bio-One) with appropriate DMSO backfill for a final DMSO concentration of 0.03%. hMSCs were plated at 20,000 cells/well in 250 μL/well Incomplete Chondrogenic Induction Medium (Lonza; DMEM, dexamethasone, ascorbate, insulin-transferrin-selenium [ITS supplement], gentamycin-amphotericin [GA-1000], sodium pyruvate, proline and L-glutamine). TGF-β3 (10 ng/mL) was used as a positive control for differentiation while negative control wells were treated with 75 nL DMSO for normalization and calculating EC50 values. Cells were incubated at 37° C. and 5% CO2 for 6 days. To image chondrogenic nodules, the cells were fixed using 4% formaldehyde (Electron Microscopy Sciences), and stained with 2 μg/mL Rhodamine B (Sigma-Aldrich) and 20 μM Nile Red (Sigma-Aldrich) [Johnson K., et. al, A Stem Cell-Based Approach to Cartilage Repair, Science, (2012), 336(6082), 717-721]. The nodules imaged (4 images per well at 4× magnification) by excitation at 531 nm and emission at 625 nm and quantified using the CellInsight CX5 (Thermo Scientific). Number of nodules in each well was normalized to the average of 3 DMSO treated wells on the same plate using Excel (Microsoft Inc.). The normalized averages (fold change over DMSO) of 3 replicate wells for each compound concentration were calculated. Due to solubility limitations of some of the compounds, curve fitting was incomplete leading to inaccurate EC50 determinations.
Using TGF-β3 as a positive control, the concentration of representative compounds required to induce 50% levels of chondrogenesis is reported. In addition, the maximum activity of each compound and the respective dose that each compound reached maximum chondrogenesis activity is reported.

[2] = tested on: primary human fibroblasts derived from IPF patients (LL29 cells) treated with TGF-β1; α-smooth muscle actin (αSMA); test: Inhibition of the fibrotic process: αSMA staining in TGF-β1 treated primary human fibroblasts from IPF patients (LL29 cells); assay type: cell-based; conditions: Fibroblast, 96 h, TGF-β1 20 ng/mL, 4 days; for EC50: % cells positive for αSMA
Outline: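 EC50 values come from non-linear fits of the αSMA-positive percentage among SYTOX-excluded live cells, normalized to TGF-β1 plus DMSO controls, or appear as % inhibition at 10 μM when above 10 μM. Fibrosis was induced in IPF-derived LL29 fibroblasts by 20 ng/mL TGF-β1 over 4 days, with 1:2 compound dilutions from 10 μM.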

Row | EC50 [1] | Structure (SMILES) | Emax [1] | EC50 [2] | inhibition at 10 µM ([2]; αSMA, 10 μM, read-out: percent inhibition at 10 μM (given for EC50 of >10 μM))
1 | 900 nM | Cc1ccncc1-c1cc2c(-c3cc4c(-c5cc(F)cc(CNS(C)(=O)=O)c5)cccc4[nH]3)n[nH]c2cn1 [Compound 481, N-(3-Fluoro-5-(2-(5-(4-methylpyridin-3-yl)-1H-pyrazolo[3,4-c]pyridin-3-yl)-1H-indol-4-yl)benzyl)methanesulfonamide] | 152% | 712 nM | 
2 | 900 nM | CS(=O)(=O)NCc1cc(F)cc(-c2cccc3[nH]c(-c4n[nH]c5cnc(-c6cncnc6)cc45)cc23)c1 [Compound 503, N-(3-Fluoro-5-(2-(5-(pyrimidin-5-yl)-1H-pyrazolo[3,4-c]pyridin-3-yl)-1H-indol-4-yl)benzyl)methanesulfonamide] | 102% | > 10000 nM | 0%
3 |  | CN(C)CCOc1cncc(-c2cc3c(-c4cc5c(-c6cccnc6)cccc5[nH]4)n[nH]c3cn2)c1 [Compound 591, N,N-Dimethyl-2-((5-(3-(4-(pyridin-3-yl)-1H-indol-2-yl)-1H-pyrazolo[3,4-c]pyridin-5-yl)pyridin-3-yl)oxy)ethan-1-amine] | 36% | 2190 nM | 
4 | 300 nM | Cn1cc(-c2cc3c(-c4cc5c(-c6ccncc6)cccc5[nH]4)n[nH]c3cn2)cn1 [Compound 600, 5-(1-Methyl-1H-pyrazol-4-yl)-3-(4-(pyridin-4-yl)-1H-indol-2-yl)-1H-pyrazolo[3,4-c]pyridine] | 138% | 13 nM | 
5 |  | O=C(CC1CCNCC1)Nc1cncc(-c2cc3c(-c4cc5c(-c6ccccn6)cccc5[nH]4)n[nH]c3cn2)c1 [Compound 621, 2-(Piperidin-4-yl)-N-(5-(3-(4-(pyridin-2-yl)-1H-indol-2-yl)-1H-pyrazolo[3,4-c]pyridin-5-yl)pyridin-3-yl)acetamide] | 57% | 3140 nM | 
6 | 10 nM | CN(C)CCNc1cc(F)cc(-c2cccc3[nH]c(-c4n[nH]c5cnc(-c6cncc(O)c6)cc45)cc23)c1 [Compound 817, 5-(3-(4-(3-((2-(Dimethylamino)ethyl)amino)-5-fluorophenyl)-1H-indol-2-yl)-1H-pyrazolo[3,4-c]pyridin-5-yl)pyridin-3-ol] | 66% | 519 nM | 
